{
  "source": "patent US20200399329A1",
  "about": "“ANTIMICROBIAL PEPTIDES” (priority 2015, published 2020)",
  "key": {"E. coli CR BAA-2452": {"tested_on": "E. coli CR BAA-2452", "format": "cell-based, Escherichia coli", "procedure": "(§1) In order to determine the MIC values of the peptides, growth and inhibition of various bacteria were monitored after treatment with the peptides of the invention (Table B). E. coli, K. pneumoniae, P. aeruginosa and Salmonella bacteria were cultured at 37° C. and at 5×10^6 CFU/ml in a standard 96-well-plate, in Mueller Hinton broth. […] The growth of the bacteria was continuously monitored via spectrophotometry at a wave-length of 625 nm. As bacterial growth progresses, Optical density at 625 nm (OD625 nm) values increase, and where the bacterial growth is inhibited, OD625 nm values remain constant. The experimental system and parameters described herein were used to determine the MIC values of OMN3, OMN5, OMN8 and OMN9 on various bacteria strains (Table B). Using the standard MHB MIC testing for antibiotic activity"}, "E. coli ESBL BAA-198": {"tested_on": "E. coli ESBL BAA-198", "format": "cell-based, Escherichia coli", "procedure": "as §1"}, "[1]": {"tested_on": "E. coli Sens. 25922 QC strain", "format": "cell-based, Escherichia coli", "procedure": "as §1"}, "[2]": {"tested_on": "K. pneu Sens. 700603 QC strain", "format": "cell-based, K. pneumoniae", "procedure": "as §1"}, "K . pneu KPC + BAA-2344": {"tested_on": "K . pneu KPC + BAA-2344", "format": "cell-based, Klebsiella pneumoniae", "procedure": "as §1"}, "K. pneu NDM1 BAA-2473": {"tested_on": "K. pneu NDM1 BAA-2473", "format": "cell-based, Klebsiella pneumoniae", "procedure": "as §1"}, "P. aeruginosa BAA-2795": {"tested_on": "P. aeruginosa BAA-2795", "format": "cell-based, Pseudomonas aeruginosa", "procedure": "as §1"}, "P. aeruginosa BAA-2796": {"tested_on": "P. aeruginosa BAA-2796", "format": "cell-based, Pseudomonas aeruginosa", "procedure": "as §1"}, "E. coli strains": {"tested_on": "E. coli strains", "format": "cell-based", "procedure": "as §1"}},
  "note": "Where a SMILES comes first, the peptide text is derived from it. Bridges are numbered along the chain shown (N, C = ends).",
  "data": [
    {"smiles": "CC[C@H](C)[C@@H]1NC(=O)CNC(=O)[C@H](CC(N)=O)NC(=O)[C@H](CCCNC(=N)N)NC(=O)[C@H]([C@@H](C)CC)NC(=O)[C@H](CC(N)=O)NC(=O)[C@H](CCCNC(=N)N)NC(=O)CNC(=O)[C@H](C(C)C)NC(=O)[C@H](CCCCN)NC(=O)[C@H](CCC(=O)O)NC(=O)[C@H]([C@@H](C)CC)NC(=O)[C@H](CCCCN)NC(=O)[C@H](CCCCN)NC(=O)[C@H](Cc2ccccc2)NC(=O)[C@H]([C@@H](C)CC)NC(=O)[C@H](CCCCN)NC(=O)[C@H](Cc2c[nH]c3ccccc23)NC(=O)[C@H](CCCCN)NC(=O)[C@@H](NC(=O)[C@@H](N)CCSC)CSSC[C@@H](C(=O)O)NC(=O)[C@H](CC(C)C)NC(=O)[C@H](C)NC(=O)[C@H](CCCCN)NC(=O)[C@H](C)NC(=O)[C@H](CCC(=O)O)NC(=O)CNC(=O)[C@H](CC(C)C)NC(=O)[C@H](C(C)C)NC(=O)[C@H](C)NC(=O)[C@H](C(C)C)NC(=O)[C@H](C)NC(=O)[C@@H]2CCCN2C(=O)CNC(=O)[C@H](C)NC(=O)[C@H](CCCCN)NC(=O)[C@H]([C@@H](C)CC)NC1=O", "note": "[OMN9] (H-MCKWKIFKKIEKVGRNIRNGIIKAGPAVAVLGEAKALC-OH; disulfide 2-38; N-terminus and C-terminus assumed)", "values": [
      {"measurement": "MIC", "setting": "E. coli CR BAA-2452", "value": 8, "unit": "µg/mL"},
      {"measurement": "MIC", "setting": "E. coli ESBL BAA-198", "value": 4, "unit": "µg/mL"},
      {"measurement": "MIC", "setting": "[1]", "value": 8, "unit": "µg/mL"},
      {"measurement": "MIC", "setting": "[2]", "value": 32, "unit": "µg/mL"},
      {"measurement": "MIC", "setting": "K . pneu KPC + BAA-2344", "value": 64, "unit": "µg/mL"},
      {"measurement": "MIC", "setting": "K. pneu NDM1 BAA-2473", "value": 32, "unit": "µg/mL"},
      {"measurement": "MIC", "setting": "P. aeruginosa BAA-2795", "value": 64, "unit": "µg/mL"},
      {"measurement": "MIC", "setting": "P. aeruginosa BAA-2796", "value": 64, "unit": "µg/mL"},
      {"measurement": "MIC for E. coli strains", "setting": "E. coli strains", "value": "4 to 8", "unit": "µg/mL"}
    ]}
  ]
}
